From patent US8354498B2, “CD4 mimic peptides and their uses” (Commissariat a l'Energie Atomique, priority 2006, dated 2013) come the findings set out here.

Experiment [1] deals with gp120 isolates SF2, SF162, Bal, IIIB, YU2. The experiment in a line: Direct binding by fluorescence anisotropy, comparison over all isolates. Also on record: species or system HIV-1. Conditions: depending on gp120 isolates. The procedure:
Direct binding assays of fluorescent peptides were performed in triplicates by adding 10 μL of 0.5 nM Alexa-labeled mini-proteins and 10 μL of serial dilutions (two-thirds dilutions in 16 wells, starting at 200 nM) of gp120 SF2, SF162, BaL, IIIB and YU2. Collected data were fitted to the following equation using a non-linear regression program (Prism, GraphPad software Inc.):
The biphenylalanine in position 23 led to a 3 fold gain, consistent with the previously observed difference between CD4M33 and its [Phe^23]M33 mutant (Huang et al., Structure, 2005, 13, 755-768).
For orientation: Fluorescence polarisation rises when a labelled molecule tumbles more slowly, as on binding a larger partner.

For experiment [2], the target named is T1, gp120SF162 binding to CCR5+-CHO cells (Human immunodeficiency virus type 1 group M subtype B, UniProt P19550).
T1 construct: R5-tropic SF162 and Dual-tropic SF2 recombinant gp120s were produced in mammalian cells (CHO); made in house; host or cells: gp120: CHO; CCR5: transfected CHO-K1 cells
The experiment in a line: FACS analysis of gp120 binding to CCR5+-CHO cells in presence of CD4 mimics. The class given is cell-based, HIV-1. The note with it: gp120SF162 pre-incubated with mini-protein. From the text:
FIG. 7 illustrates the FACS analysis of the binding of recombinant envelope gp120 to CCR5^+-CHO cells in absence or in presence of various CD4-mimics, in comparison with soluble CD4.
FIG. 13 illustrates the FACS analysis of the binding of recombinant envelope gp120 to CCR5^+-CHO cells in absence or in presence of various CD4-mimics in comparison with soluble CD4.
FIG. 19 illustrates the FACS analysis of the binding of gp120SF162 to CCR5^+ CHO cells in absence or in presence of CD4M48 monomer or hetero-bivalent CD4M48−heparin. The ability of gp120 in complex with CD4M48 alone, CD4M48 covalently bound to heparin (noted M48−heparin), CD4M48 in presence of free LMW heparin (1:1) (noted M48+heparin) to bind to cellular co-receptor CCR5 was investigated.
Adherent CHO-K1 cells expressing CCR5 (Samson et al., Biochemistry, 1996, 35, 3362-3367; Blanpain et al., Blood, 2000, 96, 1638-1645) were used to analyze gp120SF162 conformational change in complex with different mini-proteins, by FACS (BECKTON DICKINSON). Briefly, 0.03 μg of gp120SF162 were pre-incubated overnight at 4° C. in absence or in presence of 10 nM CD4 or 10 nM mini-proteins and further added to 2×10^5 cells in HAM F12 supplemented with 10% SVF, 1% penicillin/streptomycin. […] After final wash, cells were analyzed for envelope binding by FACS.
On the technique in general: A flow cytometer gives signals particle by particle.

In experiment [3] the test system is gp120. The protocol:
Fluorescence anisotropy was determined after 40 min equilibration time at room temperature, using 485 nm excitation and 530 nm emission filters and an additional 505 nm dichroic filter. All experiments were performed in duplicate.
Fluorescence anisotropy measurements were based on the assessment of the rotational motions of species. Whereas the CD4-mimic tumbles very fast in solution randomizing excited molecules, once it binds to gp120 envelopes, the excited mini-protein stays aligned during the process of emission and as a result, emitted light is polarized.

Experiment [4] relates to gp120 (SF162, YU2, SF2, LAI, HXB2) binding to CD4i antibody 48d. Kind of experiment: SPR analysis of binding of gp120 complexes to immobilized CD4i Ab 48d. Also on record: species or system HIV-1. Conditions: 50 nM gp120 premixed with 3 eq. The protocol: 120 μL of 50 nM gp120 preincubated with 3 eq. […] (A) gp120SF162, (B) gp120LAI. (C) gp120YU2.
The different gp120 (SF162, YU2, LAI, HXB2, SF2) were premixed at a final concentration of 50 nM with 3 eq. CD4M48, 3 eq. CD4M48 in presence of 3 eq. LMW heparin or 3 eq. covalent CD4M48−heparin for 60 min before injection at 20 μL/min. All sensorgrams were corrected by substracting the signal from reference flow cell.
(In general: SPR reads the build-up and loss of mass on a sensor chip optically.)

Experiment [5] has as its system HIV-1 6393(R5). Kind of experiment: Acute infection assay in PM1 cells. The note with it: day 5, read-out: Antiviral activity IC50. The class given is cell-based. The protocol: (§1) For the acute infection assay in PM1 cell line (Lusso et al., J. virol., 1995, 69, 3712-3720), an immortalized CD4^+CCR5^+CXCR4^+ T-cell clone susceptible of a wide variety of HIV-1 strains, the cells were seeded at 2.5×10^4 cells/well into flat-bottom 96-well plates in 200 μL of complete RPMI medium. Cells were then exposed to the viral stocks (˜50 TCID50/well) pre-treated or not with serial dilutions of inhibitors for 30 min. After overnight incubation at 37° C., the cells were washed twice and recultured in complete RPMI medium supplemented with the appropriate inhibitors. After 3, 5 or 7 days, the culture supernatant was removed […] p24 antigen testing and replaced with fresh medium containing the appropriate inhibitors. The extracellular p24 concentrations were measured by capture ELISA, using a sandwich of specific antibodies (AALTO BIO REAGENTS).
(§2) The experimental procedures are as described in example 1.

Experiment [6] has as its system HIV-1 714(R5). Kind of experiment: Acute infection assay in PM1 cells. The class given is cell-based. The note with it: day 5, read-out: Antiviral activity IC50. The procedure:
as §1, §2

Experiment [7] has as its system HIV-1 BaL(R5). The experiment in a line: Acute infection assay in PM1 cells. The class given is cell-based. Conditions: day 5, read-out: Antiviral activity IC50. The protocol: as §1, §2
The test system of experiment [8] is HIV-1 NL4.3 (X4). The class given is cell-based. The protocol: The antiviral activity of the molecules in MT-4 cells was determined using a tetrazolium-based colorimetric assay (Hase et al., Biochem. Pharmacol., 2005, 70, 752-761). Briefly, five-fold dilutions of the test compounds in 100 μL of medium were added to duplicate wells of 96-well flat bottom plates (IWAKI). Then 6×10^4 MT-4 cells were added in 50 μL of medium, and finally 50 μL of diluted HIV-1 stocks was added to each well. Cytopathic effect induced by the virus was monitored by daily microscopic evaluation of the virus-infected cell cultures. At day 4-5 after infection, the cell viability was assessed via the in situ reduction of the tetrazolium compound MTS, using the CellTiter 96® AQueous one solution cell proliferation assay (PROMEGA). The absorbance was then measured at 490 nm with a 96-well plate reader and compared with four cell control replicates (cells without virus and drugs) and four virus control wells (virus-infected cells without drugs). The IC50 was calculated for each compound from the dose-response curve.
as §2

Experiment [9] deals with HIV-1 NL4.3(X4). The format is cell-based. The procedure:
The acute infection assays in primary cells were performed as described by Schols and coworkers (Balzarini et al., J. Biol. Chem., 2005, 280, 41005-41014). Briefly, PBMC from healthy donors were isolated by density gradient centrifugation and stimulated by phytohemagglutinin (PHA; SIGMA) in RPMI 1640 medium supplemented with 10% foetal calf serum (FCS; BIOCHROM). PBMC were infected by exposing cells (0.5×10^6/well; 48-well plate) to the viral stocks added at a final dose of 250 pg of p24/mL in the presence or the absence of the inhibitors. Cell supernatant was collected at day 12, and HIV-1 core Ag in the culture supernatant was analysed by a p24 Ag enzyme-linked immunosorbent assay kit (PERKIN ELMER).
as §2

For experiment [10], the target named is gp120SF162 (Human immunodeficiency virus type 1 group M subtype B, UniProt P19550). Conditions: injected at 125 nM; curves normalized to CD4M48. The protocol: 100 μL of monomer, dimers and tetramers were passed over the surface at 20 μL/min after which dissociation of bound inhibitors was monitored for 15 min.
All experiments were conducted at 25° C. with 20 μL/min flow rate in HBS (50 mM HEPES-buffered saline, 3 mM EDTA, 0.05% Biacore surfactant P20, pH 7.4) with a BIACORE 3000 instrument (BIACORE AB).
For binding of multimers to gp120, gp120SF162 was immobilized on a CM5 sensor chip at 9000 RU by the amine coupling kit provided by the manufacturer.

Where [11] appears, read: MT-4 cells, NL4.3 (X4), day 5, read-out: Antiviral activity IC50.

Where two headings read alike, the source gives them in different places.

With “CD4M47-F1: CD4M47 labeled with Alexa-488 probe at Lys11”, the “Improvement of affinity (Kd) compared to CD4M33” value in experiment [1] is 5.2- to 12.3 fold.

Regarding “CD4M48-F1: CD4M48 labeled with Alexa-488 probe at Lys11 (XNLHFCQLRCKSLGLLGRCAXTFCACV; not fully specified; D-residues)”, the “Improvement of affinity (Kd) compared to CD4M33” value in [1] lay within 1.1 to 6.1 fold.

With “CD4M48-hep: hetero-bivalent inhibitor: CD4M48-hydrazino (Lys-11) covalently ligated to heparin mono-aldehyde (XNLHFCQLRCKSLGLLGRCAXTFCACV; not fully specified; D-residues)”, the “Binding of gp120 to CCR5+-CHO cells induced by the mimic (conformational change of gp120)” value in experiment [2] is “prevents the binding of the complex to CCR5+ cells”. Also, the “Inhibition of CD4M33-F1 binding to gp120 (competitive polarization)” value in experiment [3] is recorded as “nanomolar range”. Moreover, in [4], the “Recognition of the gp120 complex by CD4i Ab 48d” value is given as “inhibit completely the recognition of the complex by CD4i-Ab 48d”.

On to “CD4M48T50: CD4M48 tetramer on polylysine construct with 50 Å PEGylated linkers”, for which the IC50 was 350 nM in experiment [5]; 680 nM in experiment [6]; 310 nM in experiment [7]; 31 nM in experiment [8] (setting [11]); less than 26 nM in experiment [9] (PBMC, day 12, read-out: Antiviral activity IC50).

As to “CD4M48T100: CD4M48 tetramer on polylysine construct with 100 Å PEGylated linkers (XNLHFCQLRCKSLGLLGRCAXTFCACV; not fully specified; D-residues)”, the IC50 in experiment [5] stood at 55 nM; in [6], 360 nM; in experiment [7] it was 45 nM; in [8] (setting [11]) it was 22 nM. Besides, in experiment [10], the “Dissociation from immobilized gp120 (off-rate) compared to monomer CD4M48” value is reported as “slowed-down dissociation phase”.

With Enfuvirtide, the results for the IC50 in experiment [8] (NL4.3(X4)) and in experiment [9] were 11 nM and 13 nM, respectively.

By IC50 is commonly meant the concentration that gives 50% inhibition.
